# Data: ChEMBL document CHEMBL3797052 (Eur J Med Chem, 2016)
# Test system: NCI-H322M
# Test: Antiproliferative activity against human NCI-H322M cells assessed as growth inhibition after 48 hrs by sulforhodamine B assay
# Format: functional
# Settings: not given
SMILES,LC50 (50% lethal concentration) [µM],TGI [µM]
CNC(=O)c1cc(Oc2ccc3nc(NC(=O)c4cc(C(F)(F)F)cc(C(F)(F)F)c4)sc3c2)ccn1,> 100,19.8

# Test system: NCI-H23
# Test: Antiproliferative activity against human NCI-H23 cells assessed as growth inhibition after 48 hrs by sulforhodamine B assay
# Format: functional
# Settings: NCI-H23, 48 h
SMILES,GI50 [µM],LC50 [µM],TGI [µM]
CNC(=O)c1cc(Oc2ccc3nc(NC(=O)c4cc(C(F)(F)F)cc(C(F)(F)F)c4)sc3c2)ccn1,3.37,> 100,17.7

# Test system: not listed separately
# Test: Antiproliferative activity against human HOP92 cells assessed as growth inhibition after 48 hrs by sulforhodamine B assay
# Format: functional
# Settings: HOP-92, 48 h
SMILES,GI50 [µM],LC50 [µM],TGI [µM]
CNC(=O)c1cc(Oc2ccc3nc(NC(=O)c4cc(C(F)(F)F)cc(C(F)(F)F)c4)sc3c2)ccn1,1.68,> 100,7.21

# Test system: not listed separately
# Test: Antiproliferative activity against human SW620 cells assessed as cell growth at […] M after 48 hrs by sulforhodamine B assay
# Format: functional
# Settings: SW-620, 48 h, read-out: Activity
row,SMILES,growth at 0.01 µM [%]
1,CNC(=O)c1cc(Oc2ccc3nc(NC(=O)c4cc(C(F)(F)F)cc(C(F)(F)F)c4)sc3c2)ccn1,97

# Test system: not listed separately
# Test: Antiproliferative activity against human MOLT4 cells assessed as cell growth at 10^-6 M after 48 hrs by sulforhodamine B assay
# Format: functional
# Settings: MOLT-4, 48 h, read-out: Activity
row,SMILES,growth at 1 µM [%]
1,CNC(=O)c1cc(Oc2ccc3nc(NC(=O)c4cc(C(F)(F)F)cc(C(F)(F)F)c4)sc3c2)ccn1,85

# Test system: not listed separately
# Test: Antiproliferative activity against human HOP92 cells assessed as cell growth at 10^-6 M after 48 hrs by sulforhodamine B assay
# Format: functional
# Settings: HOP-92, 48 h, read-out: Activity
row,SMILES,growth at 1 µM [%]
1,CNC(=O)c1cc(Oc2ccc3nc(NC(=O)c4cc(C(F)(F)F)cc(C(F)(F)F)c4)sc3c2)ccn1,68

# Test system: not listed separately
# Test: Antiproliferative activity against human HCC2998 cells assessed as cell growth at 10^-6 M after 48 hrs by sulforhodamine B assay
# Format: functional
# Settings: HCC 2998, 48 h, read-out: Activity
row,SMILES,growth at 1 µM [%]
1,CNC(=O)c1cc(Oc2ccc3nc(NC(=O)c4cc(C(F)(F)F)cc(C(F)(F)F)c4)sc3c2)ccn1,102

# Test system: not listed separately
# Test: Antiproliferative activity against human HOP92 cells assessed as cell growth at 10^-4 M after 48 hrs by sulforhodamine B assay
# Format: functional
# Settings: HOP-92, 48 h, read-out: Activity
row,SMILES,growth at 100 µM [%]
1,CNC(=O)c1cc(Oc2ccc3nc(NC(=O)c4cc(C(F)(F)F)cc(C(F)(F)F)c4)sc3c2)ccn1,-41

# Test system: NCI-H23
# Test: Antiproliferative activity against human NCI-H23 cells assessed as cell growth at 10^-4 M after 48 hrs by sulforhodamine B assay
# Format: functional
# Settings: NCI-H23, 48 h, read-out: Activity
row,SMILES,growth at 100 µM [%]
1,CNC(=O)c1cc(Oc2ccc3nc(NC(=O)c4cc(C(F)(F)F)cc(C(F)(F)F)c4)sc3c2)ccn1,-45

# Test system: U-251
# Test: Antiproliferative activity against human U251 cells assessed as cell growth at 10^-4 M after 48 hrs by sulforhodamine B assay
# Format: functional
# Settings: U-251, 48 h, read-out: Activity
row,SMILES,growth at 100 µM [%]
1,CNC(=O)c1cc(Oc2ccc3nc(NC(=O)c4cc(C(F)(F)F)cc(C(F)(F)F)c4)sc3c2)ccn1,-73

# Test system: Malme-3M
# Test: Antiproliferative activity against human MALME-3M cells assessed as cell growth at 10^-4 M after 48 hrs by sulforhodamine B assay
# Format: functional
# Settings: read-out: Activity
row,SMILES,growth at 100 µM [%]
1,CNC(=O)c1cc(Oc2ccc3nc(NC(=O)c4cc(C(F)(F)F)cc(C(F)(F)F)c4)sc3c2)ccn1,-38

# Test system: SK-MEL-28
# Test: Antiproliferative activity against human SK-MEL-28 cells assessed as cell growth at 10^-8 M after 48 hrs by sulforhodamine B assay
# Format: functional
# Settings: SK-MEL-28, 48 h, read-out: Activity
row,SMILES,growth at 0.01 µM [%]
1,CNC(=O)c1cc(Oc2ccc3nc(NC(=O)c4cc(C(F)(F)F)cc(C(F)(F)F)c4)sc3c2)ccn1,97

# Test system: MDA-MB-231
# Test: Antiproliferative activity against human MDA-MB-231 cells assessed as cell growth at 10^-8 M after 48 hrs by sulforhodamine B assay
# Format: functional
# Settings: MDA-MB-231, 48 h, read-out: Activity
row,SMILES,growth at 0.01 µM [%]
1,CNC(=O)c1cc(Oc2ccc3nc(NC(=O)c4cc(C(F)(F)F)cc(C(F)(F)F)c4)sc3c2)ccn1,108

# Test system: not listed separately
# Test: Antiproliferative activity against human Hs 578T cells assessed as cell growth at 10^-8 M after 48 hrs by sulforhodamine B assay
# Format: functional
# Settings: read-out: Activity
row,SMILES,growth at 0.01 µM [%]
1,CNC(=O)c1cc(Oc2ccc3nc(NC(=O)c4cc(C(F)(F)F)cc(C(F)(F)F)c4)sc3c2)ccn1,94

# Test system: not listed separately
# Test: Antiproliferative activity against human UACC62 cells assessed as cell growth at 10^-6 M after 48 hrs by sulforhodamine B assay
# Format: functional
# Settings: UACC-62, 48 h, read-out: Activity
row,SMILES,growth at 1 µM [%]
1,CNC(=O)c1cc(Oc2ccc3nc(NC(=O)c4cc(C(F)(F)F)cc(C(F)(F)F)c4)sc3c2)ccn1,84

# Test system: not listed separately
# Test: Antiproliferative activity against human Caki1 cells assessed as cell growth at 10^-6 M after 48 hrs by sulforhodamine B assay
# Format: functional
# Settings: CAKI-1, 48 h, read-out: Activity
row,SMILES,growth at 1 µM [%]
1,CNC(=O)c1cc(Oc2ccc3nc(NC(=O)c4cc(C(F)(F)F)cc(C(F)(F)F)c4)sc3c2)ccn1,88

# Test system: SN12C
# Test: Antiproliferative activity against human SN12C cells assessed as cell growth at 10^-6 M after 48 hrs by sulforhodamine B assay
# Format: functional
# Settings: read-out: Activity
row,SMILES,growth at 1 µM [%]
1,CNC(=O)c1cc(Oc2ccc3nc(NC(=O)c4cc(C(F)(F)F)cc(C(F)(F)F)c4)sc3c2)ccn1,96

# Test system: SK-MEL-5
# Test: Antiproliferative activity against human SK-MEL-5 cells assessed as cell growth at 10^-4 M after 48 hrs by sulforhodamine B assay
# Format: functional
# Settings: SK-MEL-5, 48 h, read-out: Activity
row,SMILES,growth at 100 µM [%]
1,CNC(=O)c1cc(Oc2ccc3nc(NC(=O)c4cc(C(F)(F)F)cc(C(F)(F)F)c4)sc3c2)ccn1,-89

# Test system: not listed separately
# Test: Antiproliferative activity against human OVCAR3 cells assessed as cell growth at 10^-4 M after 48 hrs by sulforhodamine B assay
# Format: functional
# Settings: OVCAR-3, 48 h, read-out: Activity
row,SMILES,growth at 100 µM [%]
1,CNC(=O)c1cc(Oc2ccc3nc(NC(=O)c4cc(C(F)(F)F)cc(C(F)(F)F)c4)sc3c2)ccn1,-79

# Test system: not listed separately
# Test: Antiproliferative activity against human OVCAR4 cells assessed as cell growth at 10^-4 M after 48 hrs by sulforhodamine B assay
# Format: functional
# Settings: OVCAR-4, 48 h, read-out: Activity
row,SMILES,growth at 100 µM [%]
1,CNC(=O)c1cc(Oc2ccc3nc(NC(=O)c4cc(C(F)(F)F)cc(C(F)(F)F)c4)sc3c2)ccn1,-13
